The values below come from US9446064B2, “Combination therapy for treating cancer” (Epizyme, Inc., priority 2013, dated 2016).

Experiment [1] has as its system MV4-11 (MLL-AF4) cells. The experiment can be described thus: Combination proliferation study with Compound A2 (Cell Titer Glo, Chou-Talalay combination index). Particulars: 7 day cotreatment. In kind it is cell-based. As to the method: (§1) The acute myelogenous leukemia cell lines MV4-11 (MLL-AF4) and MOLM-13 (MLL-AF9) were obtained from American Type Culture Collection (ATCC; Rockville, Md.) and Deutsche Sammlung von Mikroorganismen and Zellkulturen (DSMZ; Braunschweig, Germany) respectively.
(§2) Initial proliferation studies were performed to determine the IC50 of a given compound in each cell line.
(§3) Compounds were evaluated for synergy in the co-treatment phase by testing the compounds in a concentration range which was bracketed around their IC50 values. […] DMSO concentration was kept at 0.1% v/v.
(§4) Further, strong synergism is achieved when the CI value falls below 0.3.
In general terms: Cellular ATP, detected with luciferase, serves as a proxy for viable cell number.

The test system of experiment [2] is MOLM-13 (MLL-AF9) cells. The experiment is described as above. In kind it is cell-based. Particulars: 7 day cotreatment. As to the method:
as §1, §2, §3, §4

As for `CC(C)(C)c1cc(NC(=O)Nc2ccc(-c3cn4c(n3)sc3cc(OCCN5CCOCC5)ccc34)cc2)no1` [Quizartinib], the “Combination effect with Compound A2 (combination index)” value in experiment [1] was “synergy”. `CC1(C)CCC(c2ccc(Cl)cc2)=C(CN2CCN(c3ccc(C(=O)NS(=O)(=O)c4ccc(N[C@H](CCN5CCOCC5)CSc5ccccc5)c(S(=O)(=O)C(F)(F)F)c4)cc3)CC2)C1` [Navitoclax]: the “Combination effect with Compound A2 (combination index)” value in experiment [1] and in experiment [2] was “synergy” each time. In the case of `Nc1ccn([C@@H]2O[C@H](CO)[C@@H](O)[C@@H]2O)c(=O)n1` [Ara-C], the “Combination effect with Compound A2 (combination index)” value in experiment [1] is “Synergy (A combination index less than one indicates synergy)”.

In the case of `COc1cc2c(cc1-c1c(C)noc1C)ncc1[nH]c(=O)n([C@H](C)c3ccccn3)c12` [IBET-151], in experiment [1], the “Combination effect with Compound A2 (combination index)” value is on record as “Synergy (A combination index less than one indicates synergy)”. For the molecule `N[C@@H]1C[C@H]1c1ccccc1` (racemic) [Tranylcypromine], the “Combination effect with Compound A2 (combination index)” value in experiment [1] and in experiment [2] was “synergy” in each case.
